Assay: method code SF-HPLC, from DOI: 10.1016/s0968-0896(00)00015-8, PMID: 10819159
Settings: pH 7.4

**Q.** With `Nc1ccc(S(=O)(=O)N(COC(=O)c2ccccc2)c2ncccn2)cc1` as the compound, how does the logD read?
**A.** 2.15

**Q.** For `Cc1cc(C)nc(N(COC(=O)C(C)(C)C)S(=O)(=O)c2ccc(N)cc2)n1`, which logD is on record?
**A.** 3.07

**Q.** For `CCOC(=O)CNC(=O)OCN(c1ccc([N+](=O)[O-])cc1Oc1ccccc1)S(C)(=O)=O`, which logD is on record?
**A.** 2.28

**Q.** With `CCOC(=O)CN(C)C(=O)OCN(c1ccc([N+](=O)[O-])cc1Oc1ccccc1)S(C)(=O)=O` as the compound, how does the logD read?
**A.** 2.2

**Q.** Which logD does the source give for `COC(=O)C1CCCN1C(=O)OCN(c1ccc([N+](=O)[O-])cc1Oc1ccccc1)S(C)(=O)=O` (stereo not given) here?
**A.** 2.85

**Q.** Which logD does the source give for `Nc1ccc(S(=O)(=O)N(COC(=O)c2ccccc2)c2cncs2)cc1` here?
**A.** 1.47

**Q.** Which logD does the source give for `Cc1cc(C)nc(N(COC(=O)c2ccccc2)S(=O)(=O)c2ccc(N)cc2)n1` here?
**A.** 3.59

**Q.** With `CS(=O)(=O)N(COC(=O)c1ccccc1)c1ccc([N+](=O)[O-])cc1Oc1ccccc1` as the compound, how does the logD read?
**A.** 3.97

**Q.** For `Cc1noc(N(COC(=O)c2ccccc2)S(=O)(=O)c2ccc(N)cc2)c1C`, which logD is on record?
**A.** 2.83

**Q.** Which logD does the source give for `CC(C)(C)C(=O)OCN(Nc1ccc([N+](=O)[O-])cc1Oc1ccccc1)S(C)(=O)=O` here?
**A.** 3.96

— the SangsterLogP compilation
